The target of experiment [1] is GSK3α (GST-full length GSK3α) (Homo sapiens (Human), UniProt P49840). Put plainly: GSK3α TR-FRET kinase assay. It is filed as biochemical. The gist of the method:
(§1)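 Compound preincubated 30 min, then 1 nM GST-full-length GSK3α or GSK3b run 100 min at ambient temperature with 200 nM biotinylated, S645-prephosphorylated glycogen synthase 631-650 peptide in Tris pH 7.5, MgCl2, DTT, BSA, 1% DMSO. ATP 4 μM (α) or 2 μM (β), or 1 mM. EDTA-quenched; Tb-anti-pSer641/streptavidin-d2 TR-FRET 665/615 ratio gave IC50.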

The target of experiment [2] is GSK3b (GST-full length GSK3b) (Homo sapiens (Human), UniProt P49841). Description: GSK3b TR-FRET kinase assay. The class given is biochemical. An outline of the steps: as §1
(In general: Time-resolved FRET reads energy transfer from a long-lived donor to a nearby acceptor.)

The mark [3] stands for this setting: 1 nM GSK3α, 4 μM ATP, 30 minute preincubation, Table 16, read-out: GSK3-A TR-FRET BIOCHEMICAL (TR-FRET).
The mark [4] stands for this setting: 1 nM GSK3b, 2 μM ATP, 30 minute preincubation, Table 16, read-out: GSK3-B TR-FRET BIOCHEMICAL (TR-FRET).
Setting [5] is: 1 nM GSK3α, 4 μM ATP, 30 minute preincubation, geometric mean, read-out: GSK3-A TR-FRET BIOCHEMICAL (TR-FRET), GMean, IC50.
Setting [6] is: 1 nM GSK3b, 2 μM ATP, 30 minute preincubation, geometric mean, read-out: GSK3-B TR-FRET BIOCHEMICAL (TR-FRET), GMean, IC50.
The mark [7] stands for this setting: GSK3-A (TR-FRET 1 mM ATP), GMean, IC50, 1 mM ATP, geometric mean.
The mark [8] stands for this setting: GSK3-B (TR-FRET 1 mM ATP), GMean, IC50, 1 mM ATP, geometric mean.
The mark [9] stands for this setting: 1 nM GSK3α, 4 μM ATP, 30 minute preincubation, read-out: GSK3-A TR-FRET BIOCHEMICAL (TR-FRET), IC50.
Where [10] appears, read: 1 nM GSK3b, 2 μM ATP, 30 minute preincubation, read-out: GSK3-B TR-FRET BIOCHEMICAL (TR-FRET), IC50.

Read-outs that look alike come from different tables or passages of the source.

GSK3b (GST-full length GSK3b), sequence (P49841 whole entry): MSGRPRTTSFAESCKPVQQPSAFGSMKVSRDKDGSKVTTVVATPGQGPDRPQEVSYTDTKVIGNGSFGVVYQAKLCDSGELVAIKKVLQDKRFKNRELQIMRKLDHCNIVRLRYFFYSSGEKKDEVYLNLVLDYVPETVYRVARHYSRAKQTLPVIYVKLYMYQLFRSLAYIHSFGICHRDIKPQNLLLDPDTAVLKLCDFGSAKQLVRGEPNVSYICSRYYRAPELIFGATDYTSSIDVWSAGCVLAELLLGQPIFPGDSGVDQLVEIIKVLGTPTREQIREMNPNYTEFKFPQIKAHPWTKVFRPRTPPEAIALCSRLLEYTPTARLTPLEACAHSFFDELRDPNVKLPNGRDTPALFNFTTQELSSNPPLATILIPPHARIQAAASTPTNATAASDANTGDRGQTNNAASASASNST
GSK3α (GST-full length GSK3α), sequence (P49840 whole entry): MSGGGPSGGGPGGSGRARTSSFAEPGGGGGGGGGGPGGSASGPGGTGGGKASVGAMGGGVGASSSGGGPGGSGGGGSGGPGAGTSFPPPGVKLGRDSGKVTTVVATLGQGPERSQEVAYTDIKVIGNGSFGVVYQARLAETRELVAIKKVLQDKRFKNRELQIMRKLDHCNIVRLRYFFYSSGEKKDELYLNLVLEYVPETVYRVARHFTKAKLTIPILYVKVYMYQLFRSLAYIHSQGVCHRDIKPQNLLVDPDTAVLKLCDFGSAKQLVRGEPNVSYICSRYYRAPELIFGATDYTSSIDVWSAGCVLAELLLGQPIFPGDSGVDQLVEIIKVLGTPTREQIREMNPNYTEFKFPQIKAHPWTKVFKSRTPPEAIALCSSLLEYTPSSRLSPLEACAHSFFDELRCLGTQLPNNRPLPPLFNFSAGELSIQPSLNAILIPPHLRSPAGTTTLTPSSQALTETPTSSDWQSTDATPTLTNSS

Regarding `CCC1(c2cccc(Cc3ncccc3C(F)(F)F)c2)C2=C(CC(C)(C)CC2=O)Nc2n[nH]cc21` (stereo not drawn) [Compound 947548], the IC50 in experiment [1] (setting [3]) and in experiment [2] (setting [4]) was 0.1 to 1 µM in each case.

With `CCC1(c2cccc(S(=O)(=O)C3CC3)c2)C2=C(CC(C)(C)NC2=O)Nc2n[nH]c(C)c21` (stereo not drawn) [Compound 947562], the IC50 in experiment [1] (setting [5]) and in experiment [2] (setting [6]) was at most 0.1 µM each time.

For `CCC1(c2cccc(-c3ccnc(C)c3F)c2)C2=C(CC(C)(C)NC2=O)Nc2n[nH]c(C)c21` (stereo not drawn) [Compound 947563], the IC50 is at most 0.1 µM in experiment [1] (setting [5]) and 0.1 to 1 µM in experiment [2] (setting [6]).

For `CCC1(c2cccc(N3CCOCC3)c2)C2=C(CC(C)(C)NC2=O)Nc2n[nH]c(C)c21` (stereo not drawn) [Compound 947564], the IC50 in experiment [1] (setting [5]) and in experiment [2] (setting [6]) was 0.1 to 1 µM in each case.

On to `CCC1(c2cccc(N3CCCCC3)c2)C2=C(CC(C)(C)NC2=O)Nc2n[nH]cc21` (stereo not drawn) [Compound 947566], for which the IC50 in experiment [1] (setting [5]) and in experiment [2] (setting [6]) was 1 to 5 µM each time.

For `CCC1(c2cccc(-c3c(C)nn(C)c3C)c2)C2=C(CC(C)(C)NC2=O)Nc2n[nH]c(C(F)(F)F)c21` (stereo not drawn) [Compound 947568], the IC50 in experiment [1] (setting [5]) and in experiment [2] (setting [6]) was at most 0.1 µM throughout.

Take `CCC1(c2cccc(-c3ccncc3S(C)(=O)=O)c2)C2=C(CC(C)(C)CC2=O)Nc2n[nH]cc21` (stereo not drawn) [Compound 947569]: the IC50 in experiment [1] (setting [3]) and in experiment [2] (setting [4]) was at most 0.1 µM each time.

On to `CC[C@]1(c2cccc(-c3c(C)nn(C)c3C)c2)C2=C(CC(C)(C)NC2=O)Nc2n[nH]c(C)c21` [Compound 947573], for which the IC50 in experiment [1] (setting [5]) was 0.1 to 1 µM; in experiment [2] (setting [6]), 1 to 5 µM.

In the case of `CC[C@]1(c2cccc(-c3ccncc3C)c2)C2=C(CC(C)(C)NC2=O)Nc2n[nH]cc21` [Compound 947574], the IC50 in experiment [1] (setting [5]) and in experiment [2] (setting [6]) was at most 0.1 µM each time.

On to `CCC1(c2cccc(-c3c(C)nn(C)c3C)c2)C2=C(CC(C)(C)NC2=O)Nc2n[nH]c(C)c21` (stereo not drawn) [Compound 947575], for which the IC50 in experiment [1] (setting [5]) and in experiment [2] (setting [6]) was at most 0.1 µM each time.

On to `CCC1(c2cccc(-c3ccncc3C)c2)C2=C(CC(C)(C)NC2=O)Nc2n[nH]cc21` (stereo not drawn) [Compound 947576], for which the IC50 was at most 0.1 µM in experiment [1] (setting [5]) and 1 to 5 µM in experiment [2] (setting [6]).

Take `COCc1cccc(S(=O)(=O)N2CCC3(CC2)C2=C(CC(C)(C)CC2=O)Nc2n[nH]cc23)c1` [Compound 947605]: the IC50 in experiment [1] (setting [3]) and in experiment [2] (setting [4]) was at most 0.1 µM throughout.

For the compound `Cn1nc(C(F)(F)F)cc1S(=O)(=O)N1CCC2(CC1)C1=C(CC(C)(C)CC1=O)Nc1n[nH]cc12` [Compound 947606], the IC50 in experiment [1] (setting [3]) and in experiment [2] (setting [4]) was at most 0.1 µM each time.

Regarding `CC(C)n1cc(S(=O)(=O)N2CCC3(CC2)C2=C(CC(C)(C)CC2=O)Nc2n[nH]cc23)cn1` [Compound 947607], the IC50 in experiment [1] (setting [3]) and in experiment [2] (setting [4]) was at most 0.1 µM throughout.

Turning to `Cc1cc(S(=O)(=O)N2CCC3(CC2)C2=C(CC(C)(C)CC2=O)Nc2n[nH]cc23)n(C)n1` [Compound 947608], the IC50 in experiment [1] (setting [3]) and in experiment [2] (setting [4]) was at most 0.1 µM each time.

For `CCn1nc(C)cc1S(=O)(=O)N1CCC2(CC1)C1=C(CC(C)(C)CC1=O)Nc1n[nH]cc12` [Compound 947609], the IC50 in experiment [1] (setting [3]) was at most 0.1 µM; in experiment [2] (setting [4]) it was 0.1 to 1 µM.

Regarding `CC1(C)CC(=O)C2=C(C1)Nc1n[nH]cc1C21CCN(S(=O)(=O)c2cnc3ccccn23)CC1` [Compound 947610], the IC50 in experiment [1] (setting [3]) and in experiment [2] (setting [4]) was at most 0.1 µM throughout.

With `Cc1ncc(S(=O)(=O)N2CCC3(CC2)C2=C(CC(C)(C)CC2=O)Nc2n[nH]cc23)o1` [Compound 947611], the IC50 was at most 0.1 µM in experiment [1] (setting [3]), 0.1 to 1 µM in experiment [1] (setting [7]), at most 0.1 µM in experiment [2] (setting [4]) and 0.1 to 1 µM in experiment [2] (setting [8]).

`COc1ccc(S(=O)(=O)N2CCC3(CC2)C2=C(CC(C)(C)CC2=O)Nc2n[nH]cc23)cc1Cl` [Compound 947612]: the IC50 in experiment [1] (setting [3]) and in experiment [2] (setting [4]) was at most 0.1 µM throughout.

`CC1(C)CC(=O)C2=C(C1)Nc1n[nH]cc1C21CCN(S(=O)(=O)c2cccnc2)CC1` [Compound 947613]: the IC50 in experiment [1] (setting [3]) was at most 0.1 µM; in experiment [1] (setting [7]) it was 0.1 to 1 µM; in experiment [2] (setting [4]) it was at most 0.1 µM; in experiment [2] (setting [8]) it was 1 to 5 µM.

On to `Cc1cnc2c(S(=O)(=O)N3CCC4(CC3)C3=C(CC(C)(C)CC3=O)Nc3n[nH]cc34)cccc2c1` [Compound 947614], for which the IC50 in experiment [1] (setting [9]) and in experiment [2] (setting [10]) was at most 0.1 µM each time.

Consider `CC1(C)CC(=O)C2=C(C1)Nc1n[nH]cc1C21CCN(S(=O)(=O)c2cnn3ccccc23)CC1` [Compound 947615], for which the IC50 in experiment [1] (setting [3]) and in experiment [2] (setting [4]) was at most 0.1 µM each time.

In the case of `Cc1cc(S(=O)(=O)N2CCC3(CC2)C2=C(CC(C)(C)CC2=O)Nc2n[nH]cc23)cc(C)n1` [Compound 947616], the IC50 in experiment [1] (setting [3]) is at most 0.1 µM; in experiment [1] (setting [7]), 0.1 to 1 µM; in experiment [2] (setting [4]), at most 0.1 µM; in experiment [2] (setting [8]), 1 to 5 µM.

Consider `CC[C@]1(c2cccc(-c3cc(C)nn3C)c2)C2=C(Nc3n[nH]cc31)[C@H](F)C(C)(C)CC2=O` [Compound 947656], for which the IC50 in experiment [1] (setting [3]) was 0.1 to 1 µM; in experiment [2] (setting [4]), over 5 µM.

For the compound `CCC1(c2cccc(-c3c(C)cncc3C)c2)C2=C(CC(C)(C)CC2=O)Nc2n[nH]cc21` (stereo not drawn) [Compound 947658], the IC50 was at most 0.1 µM in experiment [1] (read-out: GSK3-A (TR-FRET 1 mM ATP), GMean, IC50, 1 mM ATP, geometric mean) and 0.1 to 1 µM in experiment [2] (read-out: GSK3-B (TR-FRET 1 mM ATP), GMean, IC50, 1 mM ATP, geometric mean).

Regarding `CC[C@]1(c2cccc(Cc3ncccc3C(F)(F)F)c2)C2=C(CC(C)(C)CC2=O)Nc2n[nH]cc21` [Compound 947665], the IC50 in experiment [1] (setting [3]) was 1 to 5 µM; in experiment [2] (setting [4]), over 5 µM.

Turning to `CCC1(c2cccc(N3CCCCC3)c2)C2=C(CC(C)(C)NC2=O)Nc2n[nH]c(C)c21` (stereo not drawn) [Compound 947674], the IC50 in experiment [1] (setting [5]) is at most 0.1 µM; in experiment [2] (setting [6]) it was 0.1 to 1 µM.

As for `CCC1(c2cccc(-c3ccnc4c3CCC4)c2)C2=C(CC(C)(C)NC2=O)Nc2n[nH]c(C)c21` (stereo not drawn) [Compound 947675], the IC50 in experiment [1] (setting [5]) is at most 0.1 µM; in experiment [2] (setting [6]), 0.1 to 1 µM.

Regarding `CCC1(c2cccc(-c3ccnc4c3CCC4)c2)C2=C(CC(C)(C)NC2=O)Nc2n[nH]cc21` (stereo not drawn) [Compound 947676], the IC50 in experiment [1] (setting [5]) was at most 0.1 µM; in experiment [2] (setting [6]), 0.1 to 1 µM.

As for `CCC1(c2cccc(-c3cn[nH]c3)c2)C2=C(CC(C)(C)NC2=O)Nc2n[nH]c(C(F)(F)F)c21` (stereo not drawn) [Compound 947677], the IC50 in experiment [1] (setting [5]) and in experiment [2] (setting [6]) was at most 0.1 µM in each case.

Take `CC1CC(C(=O)N2CC3(C2)CC2(CO3)C3=C(CC(C)(C)CC3=O)Nc3n[nH]cc32)C1` (stereo not drawn) [Compound 947732]: the figures for the IC50 in experiment [1] (setting [9]) and in experiment [2] (setting [10]) were 0.1 to 1 µM and 1 to 5 µM, respectively.

Take `CC1CC(C(=O)N2CC3(C2)CC2(CO3)C3=C(CC(C)(C)CC3=O)Nc3n[nH]cc32)C1` (stereo not drawn) [Compound 947733]: the IC50 in experiment [1] (setting [9]) and in experiment [2] (setting [10]) was at most 0.1 µM in each case.

Regarding `CC1(C)CC(=O)C2=C(C1)Nc1n[nH]cc1[C@]21COC2(CN(C(=O)C3(F)CCC3)C2)C1` [Compound 947735], the IC50 in experiment [1] (setting [9]) and in experiment [2] (setting [10]) was at most 0.1 µM throughout.

Regarding `CC1(C)CC(=O)C2=C(C1)Nc1n[nH]cc1C21COC2(CN(C(=O)C3(F)CCC3)C2)C1` (stereo not drawn) [Compound 947736], the IC50 in experiment [1] (setting [9]) was at most 0.1 µM; in experiment [2] (setting [10]) it was 0.1 to 1 µM.

`CCC1(c2cccc(C(F)(F)F)c2)C2=C(CCN(c3ccc(F)cc3)C2=O)Nc2n[nH]cc21` (stereo not drawn) [Compound 947748]: the IC50 was at most 0.1 µM in experiment [1] (setting [5]) and 0.1 to 1 µM in experiment [2] (setting [6]).

Consider `CCC1(c2cccc(-c3ccnc(C)c3)c2)C2=C(CC(C)(C)NC2=O)Nc2n[nH]c(C)c21` (stereo not drawn) [Compound 947798], for which the IC50 in experiment [1] (setting [5]) was at most 0.1 µM; in experiment [2] (setting [6]), 0.1 to 1 µM.

The record behind these values is patent US20250313563A1, “GLYCOGEN SYNTHASE KINASE 3 INHIBITORS AND USES THEREOF” (The Broad Institute, Inc., priority 2022, published 2025).
